Results: patent US20180028507A1, “3-CARBAMOYLPHENYL-4-CARBOXAMIDE AND ISOPHTALAMIDE DERIVATIVES AS INHIBITORS OF THE WNT SIGNALLING PATHWAY” (Bayer Pharma Aktiengesellschaft, priority 2015, published 2018)
pIC50: −log10 of the molar value.

Assays:
[1] = tested on: constitutive active colorectal cancer cell (CRC) Wnt pathway; assay: HCT116 TOPFlash cellular reporter assay (Super TopFlash vector, luciferase); type: cell-based; settings: Homo sapiens, HCT-116; HCT116 Super TopFlash reporter cells, 36 hours incubation, dilution series 50 μM to 15 nM, luciferase expression
Procedure: In order to discover and characterize small molecules which inhibit the constitutive active colorectal cancer cell (CRC) Wnt pathway, a cellular reporter assay was employed. The corresponding assay cell was generated by transfection of the colorectal cancer cell line HCT116 (ATCC, #CCL-247) with the Super TopFlash vector (Morin, Science 275, 1997, 1787-1790; Molenaar et al., Cell 86 (3), 1996, 391-399). The HCT116 cell line is cultivated at 37° C. and 5% CO2 in DMEM/F-12 (Life Technologies, #11320-074), supplemented with 2 mM glutamine, 20 mM HEPES, 1.4 mM pyruvate, 0.15% Na-bicarbonate and 10% foetal bovine serum (GIBCO, #10270), this cancer cell line is pathophysiological relevant since it carries a deletion of position S45 in the β-catenin gene, leading to constitutive active Wnt signaling. Stable transfectants were generated by cotransfection with pcDNA3 and selection of stable transfected cells with 1 mg/ml G418.
(§1) In preparation of the assay, the two cell lines were plated 24 hours before at 10000 cells per well of a 384 micro titre plate (MTP) in 30 μL growth medium. Selective inhibitory activity for small molecules on the mutated Wnt pathway was determined after parallel incubation of both (TOP and FOP) HCT116 reporter cell lines with a compound dilution series from 50 μM to 15 nM in steps of 3.16-fold dilutions in CAFTY buffer (130 mM NaCl, 5 mM KCl, 20 mM HEPES, 1 mM MgCl2, 5 mM NaHCO3, pH 7.4) containing 2 mM Ca^2+ and 0.01% BSA. The compounds were thereby serially prediluted in 100% DMSO and thereafter in addition 50 fold into the CAFTY compound dilution buffer (described above). From this dilution 10 μL were added to the cells in 30 μL growth medium and incubated for 36 hours at 37° C. and 5% CO2.

[2] = tested on: HCT116 cells cotransfected with the FOP control vector (non-functional TCF elements); assay: HCT116 FOPFlash control reporter assay (FOP control vector, luciferase); type: cell-based; settings: Homo sapiens, HCT-116, 36 hours incubation, dilution series 50 μM to 15 nM, luciferase expression
Procedure: In a parallel approach, HCT116 cells were cotransfected with the FOP control vector and pcDNA3. The FOP vector is identical to the TOP construct, but it contains instead of functional TCF elements a randomized, non-functional sequence. For this transfection a stable transfected cell line was generated as well.
as §1

| pIC50 [1] | pIC50 [2] | SMILES |
| --- | --- | --- |
| 5.88 | ≤ 4.30 | COc1ccc(NC(=O)c2ccc(-c3ccccc3)cc2)cc1C(=O)NCc1ccccn1 [Example 32, N-{4-methoxy-3-[(pyridin-2-ylmethyl)carbamoyl]phenyl} biphenyl-4-carboxamide] |
| 5.47 | ≤ 4.30 | COc1ccc(NC(=O)c2ccc(-c3ccccc3)cc2)cc1C(=O)NCc1ccccc1 [Example 33, N-[3-(benzylcarbamoyl)-4-methoxyphenyl]biphenyl-4-carboxamide] |
| 5.44 | ≤ 4.30 | COc1ccc(NC(=O)c2ccc(-c3ccccc3)cc2)cc1C(=O)NCc1cccc(C)n1 [Example 34, N-(4-methoxy-3-{[(6-methylpyridin-2-yl)methyl]carbamoyl}phenyl) biphenyl-4-carboxamide] |
| 5.36 | ≤ 4.30 | COCC(C)(C)CNC(=O)c1cc(NC(=O)c2ccc(-c3ccccc3)cc2)ccc1OC [Example 35, N-{4-methoxy-3-[(3-methoxy-2,2-dimethylpropyl)carbamoyl]phenyl}biphenyl-4-carboxamide] |
| 5.84 | 4.54 | CCc1cc(NC(=O)c2cc(NC(=O)c3ccc(-c4ccccc4)cc3)ccc2OC)ccn1 [Example 36, N-{3-[(2-ethylpyridin-4-yl)carbamoyl]-4-methoxyphenyl}biphenyl-4-carboxamide] |
| 5.74 | 4.60 | COc1ccc(NC(=O)c2ccc(-c3ccccc3)cc2)cc1C(=O)NCc1cccnc1 [Example 37, N-{4-methoxy-3-[(pyridin-3-ylmethyl)carbamoyl]phenyl} biphenyl-4-carboxamide] |
| 5.95 | 4.68 | COc1cc(NC(=O)c2cc(C(=O)Nc3ccc(-c4ccccc4)cc3)ccc2OC)ccn1 [Example 38, N^1-(biphenyl-4-yl)-4-methoxy-N^3-(2-methoxypyridin-4-yl)isophthalamide] |
| 5.47 | ≤ 4.30 | COc1ccc(C(=O)Nc2ccc(-c3ccccc3)cc2)cc1C(=O)NCc1ccccn1 [Example 39, N^1-(biphenyl-4-yl)-4-methoxy-N^3-(pyridin-2-ylmethyl)isophthalamide] |
| 5.65 | ≤ 4.30 | Cc1ncccc1NC(=O)c1cc(C(=O)Nc2ccc(-c3ccccc3)cc2)ccc1OC(F)(F)F [Example 40, N^1-(biphenyl-4-yl)-N^3-(2-methylpyridin-3-yl)-4-(trifluoromethoxy) isophthalamide] |
| 5.80 | ≤ 4.30 | COc1ccc(C(=O)Nc2ccc(-c3ccccc3F)nc2)cc1C(=O)NCc1cccnc1 [Example 41, N^1-[6-(2-fluorophenyl)pyridin-3-yl]-4-methoxy-N^3-(pyridin-3-ylmethyl)isophthalamide] |
| 5.67 | ≤ 4.30 | O=C(Nc1ccc(-c2ccccc2F)nc1)c1ccc(OC(F)(F)F)c(C(=O)Nc2ccncc2F)c1 [Example 42, N^1-[6-(2-fluorophenyl)pyridin-3-yl]-N^3-(3-fluoropyridin-4-yl)-4-(trifluoromethoxy) isophthalamide] |
| 5.86 | ≤ 4.30 | Cc1ccc(C(=O)Nc2ccc(-c3ccccc3)cc2)cc1C(=O)Nc1ccnc(F)c1 [Example 43, N^1-(biphenyl-4-yl)-N^3-(2-fluoropyridin-4-yl)-4-methylisophthalamide] |
| 5.55 | ≤ 4.30 | COc1cc(NC(=O)c2cc(C(=O)Nc3ccc(-c4ccccc4F)nc3)ccc2OC)ccn1 [Example 44, N^1-[6-(2-fluorophenyl)pyridin-3-yl]-4-methoxy-N^3-(2-methoxypyridin-4-yl)isophthalamide] |
| 5.59 | ≤ 4.30 | O=C(Nc1ccc(-c2ccccc2)cc1)c1ccc(OC(F)(F)F)c(C(=O)Nc2cccnc2)c1 [Example 45, N^1-(biphenyl-4-yl)-N^3-(pyridin-3-yl)-4-(trifluoromethoxy) isophthalamide] |
| 5.65 | ≤ 4.30 | COc1ccc(C(=O)Nc2ccc(-c3ccccc3F)nc2)cc1C(=O)Nc1ccncc1C [Example 46, N^1-[6-(2-fluorophenyl)pyridin-3-yl]-4-methoxy-N^3-(3-methylpyridin-4-yl)isophthalamide] |
| 5.58 | ≤ 4.30 | Cc1cncc(NC(=O)c2cc(C(=O)Nc3ccc(-c4ccccc4)cc3)ccc2OC(F)(F)F)c1 [Example 47, N^1-(biphenyl-4-yl)-N^3-(5-methylpyridin-3-yl)-4-(trifluoromethoxy) isophthalamide] |
| 5.69 | 4.43 | CC(C)(C)OC(=O)Nc1ccc(CNC(=O)c2cc(C(=O)Nc3ccc(-c4ccccc4F)nc3)ccc2OC(F)(F)F)cn1 [Example 48, tert-butyl [5-({[5-{[6-(2-fluorophenyl)pyridin-3-yl]carbamoyl}-2-(trifluoromethoxy)benzoyl]amino}methyl)pyridin-2-yl]carbamate] |
| 5.32 | ≤ 4.30 | Nc1cccc(CNC(=O)c2cc(C(=O)Nc3ccc(-c4ccccc4F)nc3)ccc2OC(F)(F)F)n1 [Example 49, N^3-[(6-aminopyridin-2-yl)methyl]-N^1-[6-(2-fluorophenyl)pyridin-3-yl]-4-(trifluoromethoxy) isophthalamide] |
| 5.77 | ≤ 4.30 | O=C(Nc1ccc(-c2cccnc2)cn1)c1ccc(OC(F)(F)F)c(C(=O)NCc2cnccn2)c1 [Example 50, N^1-(3,3′-bipyridin-6-yl)-N^3-(pyrazin-2-ylmethyl)-4-(trifluoromethoxy) isophthalamide] |
| 5.74 | 4.85 | Nc1ccc(CNC(=O)c2cc(C(=O)Nc3ccc(-c4ccccc4F)nc3)ccc2OC(F)(F)F)cn1 [Example 51, N^3-[(6-aminopyridin-3-yl)methyl]-N^1-[6-(2-fluorophenyl)pyridin-3-yl]-4-(trifluoromethoxy) isophthalamide] |
| 5.76 | 4.92 | O=C(Nc1ccc(-c2ccccc2F)nc1)c1ccc(OC(F)(F)F)c(C(=O)NCc2ccccn2)c1 [Example 52, N^1-[6-(2-fluorophenyl)pyridin-3-yl]-N^3-(pyridin-2-ylmethyl)-4-(trifluoromethoxy) isophthalamide] |
| 5.00 | ≤ 4.30 | COc1ccc(C(=O)Nc2ccc(-c3ccccc3F)nc2)cc1C(=O)NCc1ccccn1 [Example 53, N^1-[6-(2-fluorophenyl)pyridin-3-yl]-4-methoxy-N^3-(pyridin-2-ylmethyl)isophthalamide] |
| 5.49 | 4.80 | COc1ccc(C(=O)Nc2ccc(-c3ccccc3)cc2)cc1C(=O)NCc1ccc(NC(=O)OC(C)(C)C)nc1 [Example 54, tert-butyl [5-({[5-(biphenyl-4-ylcarbamoyl)-2-methoxybenzoyl]amino}methyl)pyridin-2-yl]carbamate] |
| 5.31 | 4.64 | COc1ccc(C(=O)Nc2ccc(-c3ccccc3)cc2)cc1C(=O)Nc1cccnc1 [Example 55, N^1-(biphenyl-4-yl)-4-methoxy-N^3-(pyridin-3-yl)isophthalamide] |
| 5.74 | 5.10 | COc1ccc(C(=O)Nc2ccc(-c3ccccc3F)nc2)cc1C(=O)Nc1ccncc1 [Example 56, N^1-[6-(2-fluorophenyl)pyridin-3-yl]-4-methoxy-N^3-(pyridin-4-yl)isophthalamide] |
| 5.59 | 4.96 | O=C(Nc1ccc(-c2ccccc2F)nc1)c1ccc(OC(F)(F)F)c(C(=O)Nc2cccnc2)c1 [Example 57, N^1-[6-(2-fluorophenyl)pyridin-3-yl]-N^3-(pyridin-3-yl)-4-(trifluoromethoxy) isophthalamide] |
| 5.72 | 5.18 | Cc1ncccc1NC(=O)c1cc(C(=O)Nc2ccc(-c3ccccc3F)nc2)ccc1OC(F)(F)F [Example 58, N^1-[6-(2-fluorophenyl)pyridin-3-yl]-N^3-(2-methylpyridin-3-yl)-4-(trifluoromethoxy) isophthalamide] |
| 5.77 | 5.26 | Cc1cc(NC(=O)c2cc(C(=O)Nc3ccc(-c4ccccc4F)nc3)ccc2OC(F)(F)F)ccn1 [Example 59, N^1-[6-(2-fluorophenyl)pyridin-3-yl]-N^3-(2-methylpyridin-4-yl)-4-(trifluoromethoxy) isophthalamide] |
| 5.22 | 4.96 | COc1ccc(C(=O)Nc2ccc(-c3ccccc3F)nc2)cc1C(=O)Nc1cccnc1 [Example 60, N^1-[6-(2-fluorophenyl)pyridin-3-yl]-4-methoxy-N^3-(pyridin-3-yl)isophthalamide] |
